{"source": "patent US11192877B2", "about": "“3-(5-hydroxy-1-oxoisoindolin-2-yl)piperidine-2,6-dione derivatives and uses thereof” (Novartis AG, priority 2018, dated 2021)", "note": "Where a name gives a salt, the structure may show the parent alone.", "data": [{"biological_target": "IKZF2 (Helios) (Homo sapiens, UniProt Q96SW2+Q9UKS7)", "sequence (Q9UKS7 whole entry)": "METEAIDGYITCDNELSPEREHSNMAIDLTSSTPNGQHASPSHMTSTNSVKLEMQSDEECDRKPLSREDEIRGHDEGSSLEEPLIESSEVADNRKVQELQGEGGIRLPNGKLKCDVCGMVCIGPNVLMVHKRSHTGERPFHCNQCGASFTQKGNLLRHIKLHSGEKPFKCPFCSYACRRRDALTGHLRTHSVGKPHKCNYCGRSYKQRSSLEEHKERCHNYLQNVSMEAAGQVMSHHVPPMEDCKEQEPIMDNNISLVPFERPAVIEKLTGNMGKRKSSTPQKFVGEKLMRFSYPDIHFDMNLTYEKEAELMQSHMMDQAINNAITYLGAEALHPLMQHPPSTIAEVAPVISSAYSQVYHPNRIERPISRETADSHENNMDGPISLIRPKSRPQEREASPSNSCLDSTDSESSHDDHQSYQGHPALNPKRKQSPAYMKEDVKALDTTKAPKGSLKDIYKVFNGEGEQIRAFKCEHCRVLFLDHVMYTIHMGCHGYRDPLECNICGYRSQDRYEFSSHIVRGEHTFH", "sequence (Q96SW2 whole entry)": "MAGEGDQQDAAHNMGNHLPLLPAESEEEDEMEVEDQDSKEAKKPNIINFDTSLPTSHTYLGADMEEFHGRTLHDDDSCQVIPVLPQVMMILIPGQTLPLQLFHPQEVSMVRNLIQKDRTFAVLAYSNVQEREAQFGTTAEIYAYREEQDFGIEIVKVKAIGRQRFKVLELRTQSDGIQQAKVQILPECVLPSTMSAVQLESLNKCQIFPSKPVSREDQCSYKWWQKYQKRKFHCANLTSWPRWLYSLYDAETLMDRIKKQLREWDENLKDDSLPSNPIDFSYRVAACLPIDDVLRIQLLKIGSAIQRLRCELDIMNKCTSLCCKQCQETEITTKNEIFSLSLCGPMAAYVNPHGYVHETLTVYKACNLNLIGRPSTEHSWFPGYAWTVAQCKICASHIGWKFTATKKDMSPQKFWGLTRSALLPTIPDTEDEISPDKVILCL", "sequence (Q16531 whole entry partner)": "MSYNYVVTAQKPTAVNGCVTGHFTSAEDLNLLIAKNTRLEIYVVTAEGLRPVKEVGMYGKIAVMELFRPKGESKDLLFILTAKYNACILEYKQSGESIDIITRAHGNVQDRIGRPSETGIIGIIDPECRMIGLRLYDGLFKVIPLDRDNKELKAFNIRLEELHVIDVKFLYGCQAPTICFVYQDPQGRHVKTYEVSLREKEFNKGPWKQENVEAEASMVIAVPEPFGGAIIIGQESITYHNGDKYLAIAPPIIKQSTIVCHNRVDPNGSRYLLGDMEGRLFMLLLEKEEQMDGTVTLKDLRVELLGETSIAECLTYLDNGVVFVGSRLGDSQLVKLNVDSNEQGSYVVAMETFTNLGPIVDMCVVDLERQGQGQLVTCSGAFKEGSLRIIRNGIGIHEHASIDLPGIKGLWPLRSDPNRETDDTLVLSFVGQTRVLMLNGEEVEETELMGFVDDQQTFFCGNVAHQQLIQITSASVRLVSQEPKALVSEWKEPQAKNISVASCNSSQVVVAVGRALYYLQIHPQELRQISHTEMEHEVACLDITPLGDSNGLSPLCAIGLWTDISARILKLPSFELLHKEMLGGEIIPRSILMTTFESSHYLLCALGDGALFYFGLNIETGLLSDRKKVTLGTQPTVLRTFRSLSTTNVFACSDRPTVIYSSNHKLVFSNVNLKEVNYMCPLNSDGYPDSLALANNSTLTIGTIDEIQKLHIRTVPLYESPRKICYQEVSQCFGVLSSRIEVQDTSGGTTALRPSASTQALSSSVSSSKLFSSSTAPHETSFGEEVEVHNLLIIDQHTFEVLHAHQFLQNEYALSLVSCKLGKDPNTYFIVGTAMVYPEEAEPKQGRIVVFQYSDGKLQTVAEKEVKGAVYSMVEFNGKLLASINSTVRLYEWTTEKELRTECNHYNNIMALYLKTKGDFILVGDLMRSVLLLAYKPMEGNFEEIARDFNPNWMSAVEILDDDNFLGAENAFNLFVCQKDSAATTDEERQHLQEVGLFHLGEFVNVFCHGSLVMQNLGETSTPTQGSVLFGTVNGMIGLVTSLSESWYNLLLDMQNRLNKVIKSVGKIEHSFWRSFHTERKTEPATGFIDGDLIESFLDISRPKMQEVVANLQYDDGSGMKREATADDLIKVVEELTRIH", "test": "Prolabel quantification of IKZF2 protein levels in 293GT cells", "type": "cell-based", "conditions": "24 h, Pro-label assay, 293GT cells, 10 μM, read-out: IKZF2 % protein reduction at 10 μM, 24 h", "units": {"IKZF2 % protein reduction at 10 µM": "%"}, "values": [{"smiles": "O=C1CCC(N2Cc3cc(O[C@H]4CCC[C@@H]4N4CC5CCC(C4)O5)ccc3C2=O)C(=O)N1", "note": "(stereo partly drawn) [I-18, 3-(5-(((1S,2S)-2-(8-oxa-3-azabicyclo[3.2.1]octan-3-yl)cyclopentyl)oxy)-1-oxoisoindolin-2-yl)piperidine-2,6-dione]", "IKZF2 % protein reduction at 10 µM": 50}, {"smiles": "O=C1CCC(N2Cc3cc(O[C@H]4CCC[C@@H]4NCc4ccccc4)ccc3C2=O)C(=O)N1", "note": "(stereo partly drawn) [I-20, 3-(5-(((1S,2S)-2-(benzylamino)cyclopentyl)oxy)-1-oxoisoindolin-2-yl)piperidine-2,6-dione]", "IKZF2 % protein reduction at 10 µM": 75}, {"smiles": "O=C1CCC(N2Cc3cc(O[C@H]4CCOC[C@@H]4NCc4ccccc4)ccc3C2=O)C(=O)N1", "note": "(stereo partly drawn) [I-21, 3-(5-(((3S,4S)-3-(benzylamino)tetrahydro-2H-pyran-4-yl)oxy)-1-oxoisoindolin-2-yl)piperidine-2,6-dione]", "IKZF2 % protein reduction at 10 µM": 30}, {"smiles": "O=C1CCC(N2Cc3cc(O[C@H]4CCCC[C@@H]4NCc4ccccc4)ccc3C2=O)C(=O)N1", "note": "(stereo partly drawn) [I-22, 3-(5-(((1S,2S)-2-(benzylamino)cyclohexyl)oxy)-1-oxoisoindolin-2-yl)piperidine-2,6-dione]", "IKZF2 % protein reduction at 10 µM": 80}, {"smiles": "C[C@@H](N[C@H]1CCCC[C@@H]1Oc1ccc2c(c1)CN(C1CCC(=O)NC1=O)C2=O)c1ccccc1", "note": "(stereo partly drawn) [I-23, 3-(1-oxo-5-(((1S,2S)-2-(((R)-1-phenylethyl)amino)cyclohexyl)oxy)isoindolin-2-yl)piperidine-2,6-dione]", "IKZF2 % protein reduction at 10 µM": 80}, {"smiles": "CCN(CCF)[C@H]1CCC[C@@H]1Oc1ccc2c(c1)CN(C1CCC(=O)NC1=O)C2=O", "note": "(stereo partly drawn) [I-24, 3-(5-(((1S,2S)-2-(ethyl(2-fluoroethyl)amino)cyclopentyl)oxy)-1-oxoisoindolin-2-yl)piperidine-2,6-dione]", "IKZF2 % protein reduction at 10 µM": 80}, {"smiles": "CCN(C(C)C)[C@H]1CCC[C@@H]1Oc1ccc2c(c1)CN(C1CCC(=O)NC1=O)C2=O", "note": "(stereo partly drawn) [I-25, 3-(5-(((1S,2S)-2-(ethyl(isopropyl)amino)cyclopentyl)oxy)-1-oxoisoindolin-2-yl)piperidine-2,6-dione]", "IKZF2 % protein reduction at 10 µM": 80}, {"smiles": "CO[C@H]1CCC[C@@H]1Oc1ccc2c(c1)CN(C1CCC(=O)NC1=O)C2=O", "note": "(stereo partly drawn) [I-26, 3-(5-(((1S,2S)-2-methoxycyclopentyl)oxy)-1-oxoisoindolin-2-yl)piperidine-2,6-dione]", "IKZF2 % protein reduction at 10 µM": 0}, {"smiles": "O=C1CCC(N2Cc3cc(O[C@H]4CCCC[C@@H]4O)ccc3C2=O)C(=O)N1", "note": "(stereo partly drawn) [I-27, 3-(5-(((1S,2S)-2-hydroxycyclohexyl)oxy)-1-oxoisoindolin-2-yl)piperidine-2,6-dione]", "IKZF2 % protein reduction at 10 µM": 50}, {"smiles": "CCN[C@H]1CCC[C@@H]1Oc1ccc2c(c1)CN(C1CCC(=O)NC1=O)C2=O", "note": "(stereo partly drawn) [I-29, 3-(5-(((1S,2S)-2-(ethylamino)cyclopentyl)oxy)-1-oxoisoindolin-2-yl)piperidine-2,6-dione]", "IKZF2 % protein reduction at 10 µM": 80}, {"smiles": "N[C@@H]1CCCC[C@@H]1Oc1ccc2c(c1)CN(C1CCC(=O)NC1=O)C2=O", "note": "(stereo partly drawn) [I-30, 3-(5-(((1S,2R)-2-aminocyclohexyl)oxy)-1-oxoisoindolin-2-yl)piperidine-2,6-dione]", "IKZF2 % protein reduction at 10 µM": 0}, {"smiles": "O=C1CCC(N2Cc3cc(O[C@H]4CCC[C@@H]4N(CC4CC4)CC4CC4)ccc3C2=O)C(=O)N1", "note": "(stereo partly drawn) [I-31, 3-(5-(((1S,2S)-2-(bis(cyclopropylmethyl)amino)cyclopentyl)oxy)-1-oxoisoindolin-2-yl)piperidine-2,6-dione]", "IKZF2 % protein reduction at 10 µM": 90}, {"smiles": "O=C1CCC(N2Cc3cc(O[C@H]4CCC[C@@H]4N4CCCCC4)ccc3C2=O)C(=O)N1", "note": "(stereo partly drawn) [I-32, 3-(1-oxo-5-(((1S,2S)-2-(piperidin-1-yl)cyclopentyl)oxy)isoindolin-2-yl)piperidine-2,6-dione]", "IKZF2 % protein reduction at 10 µM": 85}]}, {"biological_target": "IKZF2 (Helios) (Homo sapiens, UniProt Q96SW2+Q9UKS7)", "test": "Prolabel quantification of IKZF2 protein levels in 293GT cells", "type": "cell-based", "conditions": "24 h, read-out: IKZF2 % protein reduction at 10 μM, 24 h", "units": {"IKZF2 % protein reduction at 10 µM": "%"}, "values": [{"smiles": "N[C@@H]1CCC[C@@H]1Oc1ccc2c(c1)CN(C1CCC(=O)NC1=O)C2=O", "note": "(stereo partly drawn) [I-28, 3-(5-(((1S,2R)-2-aminocyclopentyl)oxy)-1-oxoisoindolin-2-yl)piperidine-2,6-dione hydrochloride]", "IKZF2 % protein reduction at 10 µM": 0}]}]}
